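1) Cells in 96-well plates. 2) Compound, 48 h, 5 concentrations. 3) Linear interpolation between surrounding doses. 4) Unreached endpoint = highest concentration. GI50: concentration for 50% inhibition of growth. TGI is the concentration that stops growth completely.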
Experiments:
Assay in all cases: NCI-60 cell line screen, 48 h
MDA-MB-435 = tested on: MDA-MB-435
BT-549 breast = tested on: BT-549 breast
U251 CNS = tested on: U251 CNS
CCRF-CEM leukemia = tested on: CCRF-CEM leukemia
MALME-3M melanoma = tested on: MALME-3M melanoma
EKVX NSCLC = tested on: EKVX NSCLC
MDA-MB-231 breast = tested on: MDA-MB-231 breast
HCC-2998 colon = tested on: HCC-2998 colon
OVCAR-5 ovarian = tested on: OVCAR-5 ovarian
A549 NSCLC = tested on: A549 NSCLC

SMILES | GI50 (MDA-MB-435) | TGI (MDA-MB-435) | GI50 (BT-549 breast) | TGI (BT-549 breast) | GI50 (U251 CNS) | TGI (U251 CNS) | GI50 (CCRF-CEM leukemia) | TGI (CCRF-CEM leukemia) | GI50 (MALME-3M melanoma) | TGI (MALME-3M melanoma) | GI50 (EKVX NSCLC) | TGI (EKVX NSCLC) | GI50 (MDA-MB-231 breast) | TGI (MDA-MB-231 breast) | GI50 (HCC-2998 colon) | TGI (HCC-2998 colon) | GI50 (OVCAR-5 ovarian) | TGI (OVCAR-5 ovarian) | GI50 (A549 NSCLC) | TGI (A549 NSCLC)
C/C(=C\c1csc(C)n1)[C@@H]1C[C@@H]2O[C@]2(C)CCC[C@H](C)[C@H](O)[C@@H](C)C(=O)C(C)(C)[C@@H](O)CC(=O)N1 | 0.0655 nM | 0.000143 µM | 0.000187 µM | 0.000416 µM | 0.000147 µM | 0.000391 µM | 0.000125 µM | 0.000203 µM | 0.000376 µM | 0.000603 µM | 0.000337 µM | 0.000626 µM | 0.000312 µM | 0.000479 µM | 0.000121 µM | 0.000243 µM | 0.000262 µM | 0.000447 µM | 0.0928 nM | 0.000294 µM
Cc1cccc(Oc2ccc(Nc3ncnc4ccc(NC(=O)CN(C)C)cc34)cc2Cl)c1 | 1670 nM | 3.14 µM | 2.4 µM | 8.45 µM | 1.68 µM | 3.29 µM | 2.54 µM | 8.14 µM | 1.72 µM | 3.35 µM | 0.512 µM | 4.19 µM | 1.72 µM | 3.57 µM | 1.6 µM | 3.19 µM | 2.98 µM | 12.9 µM | 1910 nM | 10.1 µM
CC[C@]12C=CCN3CC[C@@]4(c5ccc(OC)cc5N(C)[C@H]4[C@@](O)(C(=O)OC)[C@@H]1OC(=O)CCCN1CCN(CCCC(=O)O[C@@H]4[C@]5(CC)C=CCN6CC[C@@]7(c8ccc(OC)cc8N(C)[C@H]7[C@@]4(O)C(=O)OC)[C@@H]65)CC1)[C@@H]32 | 1250 nM | 2.63 µM | 1.78 µM | 3.33 µM | 1.35 µM | 2.86 µM | 1.23 µM | 3.03 µM | 1.6 µM | 3.11 µM | 1.44 µM | 2.97 µM | 0.665 µM | 2.02 µM | 1.66 µM | 3.26 µM | 1.82 µM | 3.47 µM | 1310 nM | 2.95 µM
COc1cc2c3c(n(CCCN)c(=O)c2cc1OC)-c1ccc(N)cc1C3=O | 3060 nM | 17 µM | 1.97 µM | 8.85 µM | 0.575 µM | 6.84 µM | 0.389 µM | 7.28 µM | 5.85 µM | 26.4 µM | 9.15 µM | > 30.9 µM | 3.09 µM | 21.2 µM | 0.806 µM | 6 µM | 7.87 µM | > 47.9 µM | 12900 nM | 44.3 µM
O=C(O)CSc1cc(NS(=O)(=O)c2ccc(Br)cc2)c2ccccc2c1O | 1880 nM | 3.41 µM | 16.2 µM | 30.5 µM | 15 µM | 30.9 µM | 4.37 µM | > 44.8 µM | 8.02 µM | 21.1 µM | 13.8 µM | 32.8 µM | 2.72 µM | 8.08 µM | 18.4 µM | 33.9 µM | 21.6 µM | 47.1 µM | 22800 nM | 42.6 µM
CC(=O)O[C@H]([C@H](OC(C)=O)[C@H](C)OC(C)=O)[C@@H](/C=C/[C@H]1CC=CC(=O)O1)OC(C)=O | 41200 nM | > 100 µM | 21.9 µM | 72.6 µM | > 100 µM | > 100 µM | 36.7 µM | > 100 µM | > 100 µM | > 100 µM | > 100 µM | > 100 µM | > 100 µM | > 100 µM | 24.1 µM | 68.9 µM | > 100 µM | > 100 µM | > 100000 nM | > 100 µM
CN(c1ccccc1)c1c2ccccc2nc2[nH]c3ccccc3c12 | 3260 nM | 9.25 µM | 4.36 µM | 13.1 µM | 1.68 µM | > 25.5 µM | 1.27 µM | > 100 µM | 2.24 µM | 5.72 µM | 5.04 µM | 21 µM | 1.93 µM | 4.63 µM | 3.05 µM | 12.1 µM | 12.6 µM | 39.5 µM | 943 nM | 3.27 µM
Cn1cc(-c2ccc3c(c2)ncn3-c2cc(NS(=O)(=O)C3CC3)cc(-c3ccc(F)cc3F)c2)cn1 | 21900 nM | > 100 µM | 4.22 µM | 56.7 µM | 3.77 µM | > 100 µM | 7.5 µM | > 100 µM | 22.7 µM | 63.8 µM | 21.3 µM | > 100 µM | 5.61 µM | > 100 µM | 22.7 µM | 80.1 µM | 14 µM | > 100 µM | 9010 nM | > 100 µM
Cc1ccc(-c2nc([P+](c3ccccc3)(c3ccccc3)c3ccccc3)c(N3CCOCC3)o2)cc1 | 351 nM | 1.81 µM | 0.381 µM | 5.14 µM | 0.313 µM | 11.9 µM | 0.588 µM | 11.3 µM | 0.378 µM | 3.11 µM | 1.08 µM | 9.99 µM | 0.399 µM | 4.93 µM | 0.517 µM | 6.87 µM | 0.846 µM | 11.9 µM | 500 nM | 14 µM

From PubChem BioAssay (NCI)
